The text below walks through data of patent US7731971B2, “Enhanced CTL epitope-containing HIV-1 reverse transcriptase polypeptides” (The United States of America as represented by the …, priority 2003, dated 2010).

Test [1] concerns vaccinia virus expressing a β-galactosidase protein (vSC8). Also noted: species or system HHD-2 mice. The note with it: mouse, in vivo.
For test [2], the system named is vaccinia virus expressing a reverse transcriptase protein of HIV (vCF21). More on the design: species or system HHD-2 mice. The note with it: mouse, in vivo.

Regarding YLYQYMDDV, the “protection against vaccinia strain (vSC8) that does not express RT” value in test [1] is on record as “Neither population of mice displayed protection”. Moreover, in test [2], the “protection against vCF21 infection” value is listed as “only partially protected”.
